Laboratory results from patent US11000033B2, “Ketone or oxime compound, and herbicide” (NISSAN CHEMICAL CORPORATION, priority 2014, dated 2021).

Columns and labels:
Format in all cases: in vivo
[1] = system: Echinochloa crus-galli var. crus-galli; assay: Test Example 3: herbicidal effect by foliage application, Wagner pot (symbol H); details: application herbicide amount 320 g/ha
Protocol: (§1) Herbicidal Effect Test by Foliage Application
(§2) After alluvial soil was placed into 1/10000 are of Wagner pot, water was poured and mixed to form a submerged condition having a water depth of 0.1 cm to 0.5 cm. Seeds of Echinochloa crus-galli var. crus-galli, Leptochloa chinensis, Cyperus difformis, and rice were sowed and the pot was placed in the greenhouse of 25° C. to 30° C. to grow the plants. After the plants were grown for 14 days, the emulsion agent of the compound of the present invention prepared in accordance with Formulation Example 2 was diluted with water so as to be a predetermined herbicide amount and the diluted emulsion agent was uniformly applied to a foliage part with a small-size spray. 3 weeks later from the herbicide application, the effect to each plant was investigated in accordance with the criteria of Test Example 1.

Leptochloa chinensis = assay: Test Example 3: herbicidal effect by foliage application, Wagner pot (symbol D); details: application herbicide amount 320 g/ha
Protocol: as §1, §2

Cyperus difformis = assay: Test Example 3: herbicidal effect by foliage application, Wagner pot (symbol E); details: application herbicide amount 320 g/ha
Protocol: as §1, §2

[2] = system: directly sowed rice plant; assay: Test Example 3: effect on crop by foliage application, Wagner pot (symbol b); details: application herbicide amount 320 g/ha
Protocol: as §1
After alluvial soil was placed into 1/10000 are of Wagner pot, water was poured and mixed to form a submerged condition having a water depth of 0.1 cm to 0.5 cm. Seeds of Echinochloa crus-galli var. crus-galli, Leptochloa chinensis, Cyperus difformis, and rice were sowed and the pot was placed in the greenhouse of 25° C. to 30° C. to grow the plants.

Digitaria ciliaris = assay: Test Example 5: herbicidal effect by foliage application, plastic box (symbol F); details: 320 g/ha, 3 weeks after application
From the text: as §1
(§3) Sterilized diluvial soil was placed in a plastic box having a length of 21 cm, a width of 13 cm, and a depth of 7 cm. Each of the seeds of Digitaria ciliaris, Setaria viridis, Echinochloa crus-galli var. crus-galli, Avena fatua, Alopecurus myosuroides, Lolium multiflorum Lam., Apera spica-venti, Abutilon theophrasti, Amaranthus retroflexus, Chenopodium album, Stellaria media, Galium spurium, Veronica persica, corn, soybean, rice plant, wheat, beet, and rapeseed was sowed in a spot-like manner and was covered with the soil of a thickness of about 1.5 cm. Thereafter, the plants were grown in the greenhouse of 25° C. to 30° C. After the plants were grown for 14 days, the emulsion agent of the compound of the present invention prepared in accordance with Formulation Example 2 was diluted with water so as to be a predetermined herbicide amount and the diluted emulsion agent was uniformly applied to a foliage part with a small-size spray. 3 weeks later from the herbicide application, the effect to each plant was investigated in accordance with the criteria of Test Example 1.

Setaria viridis = assay: Test Example 5: herbicidal effect by foliage application, plastic box (symbol G); details: 320 g/ha, 3 weeks after application
From the text: as §1, §3

[3] = system: Echinochloa crus-galli var. crus-galli; assay: Test Example 5: herbicidal effect by foliage application, plastic box (symbol H); details: 320 g/ha, 3 weeks after application
From the text: as §1, §3

Avena fatua = assay: Test Example 5: herbicidal effect by foliage application, plastic box (symbol I); details: 320 g/ha, 3 weeks after application
From the text: as §1, §3

Alopecurus myosuroides = assay: Test Example 5: herbicidal effect by foliage application, plastic box (symbol J); details: 320 g/ha, 3 weeks after application
From the text: as §1, §3

Apera spica-venti = assay: Test Example 5: herbicidal effect by foliage application, plastic box (symbol L); details: 320 g/ha, 3 weeks after application
From the text: as §1, §3

Abutilon theophrasti = assay: Test Example 5: herbicidal effect by foliage application, plastic box (symbol M); details: 320 g/ha, 3 weeks after application
From the text: as §1, §3

Amaranthus retroflexus = assay: Test Example 5: herbicidal effect by foliage application, plastic box (symbol N); details: 320 g/ha, 3 weeks after application
From the text: as §1, §3

Chenopodium album = assay: Test Example 5: herbicidal effect by foliage application, plastic box (symbol O); details: 320 g/ha, 3 weeks after application
From the text: as §1, §3

Stellaria media = assay: Test Example 5: herbicidal effect by foliage application, plastic box (symbol P); details: 320 g/ha, 3 weeks after application
From the text: as §1, §3

Veronica persica = assay: Test Example 5: herbicidal effect by foliage application, plastic box (symbol R); details: 320 g/ha, 3 weeks after application
From the text: as §1, §3

corn = assay: Test Example 5: effect on crop by foliage application, plastic box (symbol c); details: 320 g/ha, 3 weeks after application
From the text: as §1
(§4) Sterilized diluvial soil was placed in a plastic box having a length of 21 cm, a width of 13 cm, and a depth of 7 cm. Each of the seeds of Digitaria ciliaris, Setaria viridis, Echinochloa crus-galli var. crus-galli, Avena fatua, Alopecurus myosuroides, Lolium multiflorum Lam., Apera spica-venti, Abutilon theophrasti, Amaranthus retroflexus, Chenopodium album, Stellaria media, Galium spurium, Veronica persica, corn, soybean, rice plant, wheat, beet, and rapeseed was sowed in a spot-like manner and was covered with the soil of a thickness of about 1.5 cm. Thereafter, the plants were grown in the greenhouse of 25° C. to 30° C.

soybean = assay: Test Example 5: effect on crop by foliage application, plastic box (symbol d); details: 320 g/ha, 3 weeks after application
From the text: as §1, §4

rice plant = assay: Test Example 5: effect on crop by foliage application, plastic box (symbol b); details: 320 g/ha, 3 weeks after application
From the text: as §1, §4

wheat = assay: Test Example 5: effect on crop by foliage application, plastic box (symbol e); details: 320 g/ha, 3 weeks after application
From the text: as §1, §4

beet = assay: Test Example 5: effect on crop by foliage application, plastic box (symbol f); details: 320 g/ha, 3 weeks after application
From the text: as §1, §4

rapeseed = assay: Test Example 5: effect on crop by foliage application, plastic box (symbol g); details: 320 g/ha, 3 weeks after application
From the text: as §1, §4

Lolium multiflorum Lam. = assay: Test Example 5: herbicidal effect by foliage application, plastic box (symbol K); details: 320 g/ha, 3 weeks after application
From the text: as §1, §3

[4] = system: Echinochloa oryzacola Vasing.; assay: Test Example 1: herbicidal activity, application before weed generation in submerged conditions (symbol A); details: application herbicide amount 320 g/ha
From the text: (§5) Herbicidal Activity Test by Application Before Weed Generation in Submerged Conditions
(§6) After alluvial soil was placed into 1/10000 are of Wagner pot, water was poured and mixed to form a submerged condition having a water depth of 4 cm. Seeds of Echinochloa oryzacola Vasing., Scirpus juncoides, and Monochoria vaginalis were sowed in a mixed manner in the above pot and thereafter 2.5 leaf stage rice plant seedlings were transplanted thereto. On the day of sowing seeds, the emulsion agent of the compound of the present invention prepared in accordance with Formulation Example 2 was diluted with water so as to be a predetermined herbicide amount and the diluted emulsion agent was applied to the surface of the water. The pot was placed in a greenhouse of 25° C. to 30° C. to grow plant. 3 weeks later from the herbicide application, the effect to each plant was investigated in accordance with the following criteria.
(§7) 5 Herbicidal ratio of 90% or more (almost completely withered)
(§8) 4 Herbicidal ratio of 70% or higher and lower than 90%
(§9) 3 Herbicidal ratio of 40% or higher and lower than 70%
(§10) 2 Herbicidal ratio of 20% or higher and lower than 40%
(§11) 1 Herbicidal ratio of 5% or higher and lower than 20%
(§12) 0 Herbicidal ratio of 5% or lower (almost no effect)

Scirpus juncoides = assay: Test Example 1: herbicidal activity, application before weed generation in submerged conditions (symbol B); details: application herbicide amount 320 g/ha
From the text: as §5, §6, §7, §8, §9, §10, §11, §12

Monochoria vaginalis = assay: Test Example 1: herbicidal activity, application before weed generation in submerged conditions (symbol C); details: application herbicide amount 320 g/ha
From the text: as §5, §6, §7, §8, §9, §10, §11, §12

transplanted rice plant = assay: Test Example 1: effect on crop, application before weed generation in submerged conditions (symbol a); details: application herbicide amount 320 g/ha
Protocol: as §5
as §6, with “On the day of sowing seeds, the emulsion agent of the compound of the present invention prepared in accordance with Formulation Example 2 was diluted with water so as to be a predetermined herbicide amount and the diluted emulsion agent was applied to the surface of the water.” left out
as §7, §8, §9, §10, §11, §12

Row | Compound | herbicidal effect on H (Echinochloa crus-galli var. crus-galli), grade 0-5 [1] | herbicidal effect on D (Leptochloa chinensis), grade 0-5 (Leptochloa chinensis) | herbicidal effect on E, grade 0-5 (Cyperus difformis) | effect on crop b (directly sowed rice plant), grade 0-5 [2] | F: Digitaria ciliaris, herbicidal effect grade (Digitaria ciliaris) | G: Setaria viridis, herbicidal effect grade (Setaria viridis) | H: Echinochloa crus-galli var. crus-galli, herbicidal effect grade [3] | I: Avena fatua, herbicidal effect grade (Avena fatua) | J: Alopecurus myosuroides, herbicidal effect grade (Alopecurus myosuroides) | L: Apera spica-venti, herbicidal effect grade (Apera spica-venti) | M: Abutilon theophrasti, herbicidal effect grade (Abutilon theophrasti) | N: Amaranthus retroflexus, herbicidal effect grade (Amaranthus retroflexus) | O: Chenopodium album, herbicidal effect grade (Chenopodium album) | P: Stellaria media, herbicidal effect grade (Stellaria media) | R: Veronica persica, herbicidal effect grade (Veronica persica) | c: corn, effect on crop grade (corn) | d: soybean, effect on crop grade (soybean) | b: directly sowed rice plant, effect on crop grade (rice plant) | e: wheat, effect on crop grade (wheat) | f: beet, effect on crop grade (beet) | further results
1 | CON=C(C)CC1CC(O)=C(c2c(C)cc(NC(=O)OC(C)(C)C)cc2C)C1=O (mixture of isomers) [6-033] | 0 (Herbicidal ratio of 5% or lower (almost no effect)) | 0 (Herbicidal ratio of 5% or lower (almost no effect)) | 3 (Herbicidal ratio of 40% or higher and lower than 70%) | 0 (Herbicidal ratio of 5% or lower (almost no effect)) | 0 (Herbicidal ratio of 5% or lower (almost no effect)) | 0 (Herbicidal ratio of 5% or lower (almost no effect)) | 1 (Herbicidal ratio of 5% or higher and lower than 20%) | 3 (Herbicidal ratio of 40% or higher and lower than 70%) | 0 (Herbicidal ratio of 5% or lower (almost no effect)) | 0 (Herbicidal ratio of 5% or lower (almost no effect)) | 0 (Herbicidal ratio of 5% or lower (almost no effect)) | 0 (Herbicidal ratio of 5% or lower (almost no effect)) | 0 (Herbicidal ratio of 5% or lower (almost no effect)) | 0 (Herbicidal ratio of 5% or lower (almost no effect)) | 0 (Herbicidal ratio of 5% or lower (almost no effect)) | 3 (Herbicidal ratio of 40% or higher and lower than 70%) | 0 (Herbicidal ratio of 5% or lower (almost no effect)) | 3 (Herbicidal ratio of 40% or higher and lower than 70%) | 0 (Herbicidal ratio of 5% or lower (almost no effect)) | 0 (Herbicidal ratio of 5% or lower (almost no effect)) | g: rapeseed, effect on crop grade (rapeseed): 1 (Herbicidal ratio of 5% or higher and lower than 20%)
2 | CCC(C(C)=O)(C(=O)OC)C1CC(O)=C(c2c(C)cc(C)cc2C)C1=O (centres unmarked) [2-023] | – | – | – | – | 0 (Herbicidal ratio of 5% or lower (almost no effect)) | 0 (Herbicidal ratio of 5% or lower (almost no effect)) | 1 (Herbicidal ratio of 5% or higher and lower than 20%) | 0 (Herbicidal ratio of 5% or lower (almost no effect)) | 0 (Herbicidal ratio of 5% or lower (almost no effect)) | 0 (Herbicidal ratio of 5% or lower (almost no effect)) | 0 (Herbicidal ratio of 5% or lower (almost no effect)) | 0 (Herbicidal ratio of 5% or lower (almost no effect)) | 0 (Herbicidal ratio of 5% or lower (almost no effect)) | 0 (Herbicidal ratio of 5% or lower (almost no effect)) | 0 (Herbicidal ratio of 5% or lower (almost no effect)) | 0 (Herbicidal ratio of 5% or lower (almost no effect)) | 0 (Herbicidal ratio of 5% or lower (almost no effect)) | 3 (Herbicidal ratio of 40% or higher and lower than 70%) | 0 (Herbicidal ratio of 5% or lower (almost no effect)) | 0 (Herbicidal ratio of 5% or lower (almost no effect)) | K: Lolium multiflorum Lam., herbicidal effect grade (Lolium multiflorum Lam.): 1 (Herbicidal ratio of 5% or higher and lower than 20%); g: rapeseed, effect on crop grade (rapeseed): 0 (Herbicidal ratio of 5% or lower (almost no effect))
3 | CC(=O)CC1CC(O)=C(c2c(C)cc(C=Cc3ccccc3)cc2C)C1=O (centres unmarked) [7-023] | 0 (Herbicidal ratio of 5% or lower (almost no effect)) | 5 (Herbicidal ratio of 90% or more (almost completely withered)) | 0 (Herbicidal ratio of 5% or lower (almost no effect)) | 0 (Herbicidal ratio of 5% or lower (almost no effect)) | – | – | – | – | – | – | – | – | – | – | – | – | – | – | – | – | Herbicidal effect grade, A: Echinochloa oryzacola Vasing. [4]: 2 (Herbicidal ratio of 20% or higher and lower than 40%); Herbicidal effect grade, B: Scirpus juncoides (Scirpus juncoides): 0 (Herbicidal ratio of 5% or lower (almost no effect)); Herbicidal effect grade, C: Monochoria vaginalis (Monochoria vaginalis): 0 (Herbicidal ratio of 5% or lower (almost no effect)); Effect grade on crop, a: transplanted rice plant (transplanted rice plant): 1 (Herbicidal ratio of 5% or higher and lower than 20%)
